SMILES strings stand for the structures.

Assay [1] has as its target T1, 5-hydroxytryptamine receptor 1A (Homo sapiens, UniProt P08908).
T1 sequence (P08908 whole entry): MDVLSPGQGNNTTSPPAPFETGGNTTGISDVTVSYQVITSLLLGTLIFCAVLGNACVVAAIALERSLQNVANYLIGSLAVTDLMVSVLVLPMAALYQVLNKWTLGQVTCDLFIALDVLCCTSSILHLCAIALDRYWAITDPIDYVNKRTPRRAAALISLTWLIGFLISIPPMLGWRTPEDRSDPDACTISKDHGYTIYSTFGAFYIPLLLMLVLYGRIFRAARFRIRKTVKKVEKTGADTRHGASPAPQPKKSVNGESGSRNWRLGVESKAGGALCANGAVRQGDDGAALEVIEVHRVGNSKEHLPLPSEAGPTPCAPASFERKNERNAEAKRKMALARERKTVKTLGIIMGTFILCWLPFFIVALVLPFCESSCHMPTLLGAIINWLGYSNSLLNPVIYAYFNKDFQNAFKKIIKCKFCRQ
Format: functional, cell-based.

Assay [2] addresses Voltage-gated inwardly rectifying potassium channel KCNH2 (Homo sapiens, UniProt Q12809). Format: functional. The conditions noted are these: read-out: AC50.
Assay [3] concerns the target Beta-2 adrenergic receptor (Homo sapiens, UniProt P07550). The class given is functional, cell-based.
Assay [4] deals with Gamma-aminobutyric acid receptor subunit alpha-1 (Rattus norvegicus, UniProt P62813).
Sequence of Gamma-aminobutyric acid receptor subunit alpha-1 (P62813 whole entry): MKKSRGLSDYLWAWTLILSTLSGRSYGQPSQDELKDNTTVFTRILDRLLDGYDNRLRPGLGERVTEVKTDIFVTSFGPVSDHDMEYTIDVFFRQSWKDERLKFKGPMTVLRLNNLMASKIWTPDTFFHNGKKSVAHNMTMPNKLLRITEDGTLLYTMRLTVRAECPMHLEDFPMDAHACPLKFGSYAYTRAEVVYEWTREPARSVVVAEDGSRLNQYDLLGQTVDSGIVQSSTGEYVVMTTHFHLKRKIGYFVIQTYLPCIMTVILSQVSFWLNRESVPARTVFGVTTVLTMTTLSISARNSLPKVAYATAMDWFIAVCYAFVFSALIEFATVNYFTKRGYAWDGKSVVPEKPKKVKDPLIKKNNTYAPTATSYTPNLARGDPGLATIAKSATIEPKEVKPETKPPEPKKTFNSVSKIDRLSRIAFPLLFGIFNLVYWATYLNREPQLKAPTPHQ
The target of a further assay is T2, Progesterone receptor (Homo sapiens, UniProt P06401).
T2 sequence (P06401 whole entry): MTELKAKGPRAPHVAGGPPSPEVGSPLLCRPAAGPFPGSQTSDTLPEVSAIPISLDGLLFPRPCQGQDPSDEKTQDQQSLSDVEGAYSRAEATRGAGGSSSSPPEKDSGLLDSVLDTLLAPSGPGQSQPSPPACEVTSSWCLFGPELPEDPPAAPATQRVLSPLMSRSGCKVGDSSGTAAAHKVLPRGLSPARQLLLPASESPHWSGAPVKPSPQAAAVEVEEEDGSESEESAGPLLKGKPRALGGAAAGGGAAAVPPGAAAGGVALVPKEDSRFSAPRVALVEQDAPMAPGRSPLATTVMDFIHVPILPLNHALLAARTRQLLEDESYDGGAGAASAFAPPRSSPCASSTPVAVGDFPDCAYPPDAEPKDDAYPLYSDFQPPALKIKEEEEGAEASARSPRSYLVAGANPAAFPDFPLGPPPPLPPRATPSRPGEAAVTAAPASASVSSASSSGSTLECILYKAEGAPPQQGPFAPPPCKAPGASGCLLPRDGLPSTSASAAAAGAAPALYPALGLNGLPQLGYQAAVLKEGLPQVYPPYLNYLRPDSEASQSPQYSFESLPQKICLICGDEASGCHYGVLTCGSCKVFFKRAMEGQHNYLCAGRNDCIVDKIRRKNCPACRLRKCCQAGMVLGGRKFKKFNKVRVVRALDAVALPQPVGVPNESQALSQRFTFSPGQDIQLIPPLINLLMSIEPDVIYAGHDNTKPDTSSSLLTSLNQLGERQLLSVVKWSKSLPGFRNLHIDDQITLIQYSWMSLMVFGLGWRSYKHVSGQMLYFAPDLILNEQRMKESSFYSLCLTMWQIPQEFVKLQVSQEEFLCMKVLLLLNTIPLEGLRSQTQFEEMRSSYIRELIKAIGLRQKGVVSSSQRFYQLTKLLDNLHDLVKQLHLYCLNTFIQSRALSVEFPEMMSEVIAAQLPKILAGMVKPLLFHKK
Format: functional.

Assay [5] concerns the target Voltage-dependent L-type calcium channel subunit alpha-1C (Rattus norvegicus, UniProt P22002). The class given is functional.
The target of assay [6] is 3',5'-cyclic-AMP phosphodiesterase 4D (Homo sapiens, UniProt Q08499). The class given is functional.
Sequence of 3',5'-cyclic-AMP phosphodiesterase 4D (Q08499 whole entry): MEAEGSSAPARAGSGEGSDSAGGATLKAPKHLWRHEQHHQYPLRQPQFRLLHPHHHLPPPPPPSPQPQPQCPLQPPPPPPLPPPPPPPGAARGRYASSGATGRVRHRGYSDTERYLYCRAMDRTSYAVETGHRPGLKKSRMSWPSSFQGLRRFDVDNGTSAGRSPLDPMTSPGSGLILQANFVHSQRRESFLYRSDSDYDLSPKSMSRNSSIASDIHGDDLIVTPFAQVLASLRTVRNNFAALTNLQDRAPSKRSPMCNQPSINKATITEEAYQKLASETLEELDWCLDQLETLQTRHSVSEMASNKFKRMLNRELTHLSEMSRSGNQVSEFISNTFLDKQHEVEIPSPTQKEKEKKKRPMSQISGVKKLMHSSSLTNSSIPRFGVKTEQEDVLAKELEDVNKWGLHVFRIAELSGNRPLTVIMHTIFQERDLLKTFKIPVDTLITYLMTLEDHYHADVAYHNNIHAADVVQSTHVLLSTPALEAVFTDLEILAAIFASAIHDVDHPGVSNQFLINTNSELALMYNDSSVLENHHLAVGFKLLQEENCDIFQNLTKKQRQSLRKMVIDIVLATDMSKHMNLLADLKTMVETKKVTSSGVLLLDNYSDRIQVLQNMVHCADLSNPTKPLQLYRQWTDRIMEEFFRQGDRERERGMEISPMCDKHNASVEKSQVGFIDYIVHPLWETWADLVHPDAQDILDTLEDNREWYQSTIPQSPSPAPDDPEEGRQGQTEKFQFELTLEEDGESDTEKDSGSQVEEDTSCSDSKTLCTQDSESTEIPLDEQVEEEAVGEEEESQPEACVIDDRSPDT
Assay [7] concerns the target T3, Mu-type opioid receptor (Homo sapiens, UniProt P35372).
Assay [8] has as its target T3, Mu-type opioid receptor. This is another data set of the same source.
In a further assay the target is Acetylcholinesterase (Homo sapiens, UniProt P22303). Format: functional.
Sequence of Acetylcholinesterase (P22303 whole entry): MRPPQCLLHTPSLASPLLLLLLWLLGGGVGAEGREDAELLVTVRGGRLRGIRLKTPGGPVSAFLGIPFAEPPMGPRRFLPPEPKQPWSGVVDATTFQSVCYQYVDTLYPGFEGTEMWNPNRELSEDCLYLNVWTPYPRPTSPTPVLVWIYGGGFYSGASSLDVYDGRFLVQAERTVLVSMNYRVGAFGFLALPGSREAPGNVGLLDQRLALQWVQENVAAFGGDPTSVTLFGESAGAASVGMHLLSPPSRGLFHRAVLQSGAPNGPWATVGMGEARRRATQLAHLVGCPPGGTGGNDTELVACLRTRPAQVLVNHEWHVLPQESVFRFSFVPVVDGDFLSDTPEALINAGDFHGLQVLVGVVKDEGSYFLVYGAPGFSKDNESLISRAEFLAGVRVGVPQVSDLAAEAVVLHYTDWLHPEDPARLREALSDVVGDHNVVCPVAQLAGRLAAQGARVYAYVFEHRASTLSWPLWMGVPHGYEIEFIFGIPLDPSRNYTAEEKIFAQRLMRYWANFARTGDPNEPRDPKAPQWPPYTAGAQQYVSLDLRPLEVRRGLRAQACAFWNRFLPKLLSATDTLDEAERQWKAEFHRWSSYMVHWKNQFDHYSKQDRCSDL
For assay [9], the target named is Prostaglandin G/H synthase 1 (Homo sapiens, UniProt P23219). Format: functional.
Sequence of Prostaglandin G/H synthase 1 (P23219 whole entry): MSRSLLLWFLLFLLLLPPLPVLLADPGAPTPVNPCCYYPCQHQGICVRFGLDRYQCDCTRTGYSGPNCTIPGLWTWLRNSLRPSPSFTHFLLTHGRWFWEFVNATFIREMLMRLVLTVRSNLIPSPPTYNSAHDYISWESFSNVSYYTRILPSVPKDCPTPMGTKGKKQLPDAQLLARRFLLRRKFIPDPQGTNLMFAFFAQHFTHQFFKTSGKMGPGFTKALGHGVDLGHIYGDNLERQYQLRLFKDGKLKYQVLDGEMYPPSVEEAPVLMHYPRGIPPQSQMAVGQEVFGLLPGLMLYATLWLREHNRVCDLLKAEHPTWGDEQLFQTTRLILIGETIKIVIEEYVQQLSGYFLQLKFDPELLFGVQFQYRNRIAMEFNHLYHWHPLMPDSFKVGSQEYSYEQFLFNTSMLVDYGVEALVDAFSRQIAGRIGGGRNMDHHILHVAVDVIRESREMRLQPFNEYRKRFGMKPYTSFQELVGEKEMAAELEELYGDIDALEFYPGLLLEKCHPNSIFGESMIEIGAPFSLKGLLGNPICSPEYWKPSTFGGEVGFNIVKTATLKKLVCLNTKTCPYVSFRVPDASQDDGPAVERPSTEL
Another assay deals with Histamine H3 receptor (Homo sapiens, UniProt Q9Y5N1).
Sequence of Histamine H3 receptor (Q9Y5N1 whole entry): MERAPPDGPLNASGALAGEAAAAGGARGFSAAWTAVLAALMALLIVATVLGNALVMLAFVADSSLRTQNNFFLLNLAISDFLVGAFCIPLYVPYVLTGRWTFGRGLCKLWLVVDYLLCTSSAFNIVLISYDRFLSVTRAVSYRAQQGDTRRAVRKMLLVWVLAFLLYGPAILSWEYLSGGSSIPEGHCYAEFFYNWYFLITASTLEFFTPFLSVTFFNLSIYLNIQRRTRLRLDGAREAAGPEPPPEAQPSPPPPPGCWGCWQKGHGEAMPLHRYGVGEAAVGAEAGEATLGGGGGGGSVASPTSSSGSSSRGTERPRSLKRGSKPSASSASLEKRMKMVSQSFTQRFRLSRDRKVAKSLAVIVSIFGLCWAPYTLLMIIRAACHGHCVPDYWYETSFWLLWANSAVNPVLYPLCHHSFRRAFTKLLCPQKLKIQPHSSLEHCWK
Assay [10] has as its target T4, Muscarinic acetylcholine receptor M1 (Homo sapiens, UniProt P11229).
T4 sequence (P11229 whole entry): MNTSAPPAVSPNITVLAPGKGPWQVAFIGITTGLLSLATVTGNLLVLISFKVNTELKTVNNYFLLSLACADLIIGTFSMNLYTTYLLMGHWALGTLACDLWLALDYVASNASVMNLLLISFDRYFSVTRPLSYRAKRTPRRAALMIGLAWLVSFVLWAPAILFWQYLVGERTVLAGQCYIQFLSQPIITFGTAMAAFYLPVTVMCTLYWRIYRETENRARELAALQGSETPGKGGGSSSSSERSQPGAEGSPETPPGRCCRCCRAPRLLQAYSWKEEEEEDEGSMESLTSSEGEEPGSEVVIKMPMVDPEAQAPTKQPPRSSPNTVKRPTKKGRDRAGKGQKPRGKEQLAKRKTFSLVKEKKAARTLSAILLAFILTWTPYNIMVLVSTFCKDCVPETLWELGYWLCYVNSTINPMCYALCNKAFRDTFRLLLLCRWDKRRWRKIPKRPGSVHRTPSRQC
The class given is functional, cell-based.
Also: assay procedure not described here.

Sequence of Beta-2 adrenergic receptor (P07550 whole entry): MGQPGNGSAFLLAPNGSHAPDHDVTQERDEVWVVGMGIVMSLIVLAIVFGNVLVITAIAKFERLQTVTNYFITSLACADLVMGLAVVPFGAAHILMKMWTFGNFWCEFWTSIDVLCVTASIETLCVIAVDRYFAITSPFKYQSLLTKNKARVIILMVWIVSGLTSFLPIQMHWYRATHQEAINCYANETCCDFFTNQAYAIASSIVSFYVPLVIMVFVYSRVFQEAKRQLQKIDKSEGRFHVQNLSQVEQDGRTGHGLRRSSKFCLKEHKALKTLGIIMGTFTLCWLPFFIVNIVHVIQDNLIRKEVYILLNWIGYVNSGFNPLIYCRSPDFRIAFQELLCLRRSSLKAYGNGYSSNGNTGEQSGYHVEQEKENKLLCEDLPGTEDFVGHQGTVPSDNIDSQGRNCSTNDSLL
T3 sequence (P35372 whole entry): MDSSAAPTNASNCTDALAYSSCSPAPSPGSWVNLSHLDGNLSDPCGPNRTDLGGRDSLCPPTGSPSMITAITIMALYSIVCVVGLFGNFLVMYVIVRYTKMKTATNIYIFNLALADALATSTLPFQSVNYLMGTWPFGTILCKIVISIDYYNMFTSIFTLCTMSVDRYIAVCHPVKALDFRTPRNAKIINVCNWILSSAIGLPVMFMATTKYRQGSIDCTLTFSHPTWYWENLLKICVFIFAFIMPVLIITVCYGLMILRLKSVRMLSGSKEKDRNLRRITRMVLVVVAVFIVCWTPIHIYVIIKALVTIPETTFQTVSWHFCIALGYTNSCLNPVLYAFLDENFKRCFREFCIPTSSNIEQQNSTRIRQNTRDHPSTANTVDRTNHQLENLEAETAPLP
Sequence of Voltage-gated inwardly rectifying potassium channel KCNH2 (Q12809 whole entry): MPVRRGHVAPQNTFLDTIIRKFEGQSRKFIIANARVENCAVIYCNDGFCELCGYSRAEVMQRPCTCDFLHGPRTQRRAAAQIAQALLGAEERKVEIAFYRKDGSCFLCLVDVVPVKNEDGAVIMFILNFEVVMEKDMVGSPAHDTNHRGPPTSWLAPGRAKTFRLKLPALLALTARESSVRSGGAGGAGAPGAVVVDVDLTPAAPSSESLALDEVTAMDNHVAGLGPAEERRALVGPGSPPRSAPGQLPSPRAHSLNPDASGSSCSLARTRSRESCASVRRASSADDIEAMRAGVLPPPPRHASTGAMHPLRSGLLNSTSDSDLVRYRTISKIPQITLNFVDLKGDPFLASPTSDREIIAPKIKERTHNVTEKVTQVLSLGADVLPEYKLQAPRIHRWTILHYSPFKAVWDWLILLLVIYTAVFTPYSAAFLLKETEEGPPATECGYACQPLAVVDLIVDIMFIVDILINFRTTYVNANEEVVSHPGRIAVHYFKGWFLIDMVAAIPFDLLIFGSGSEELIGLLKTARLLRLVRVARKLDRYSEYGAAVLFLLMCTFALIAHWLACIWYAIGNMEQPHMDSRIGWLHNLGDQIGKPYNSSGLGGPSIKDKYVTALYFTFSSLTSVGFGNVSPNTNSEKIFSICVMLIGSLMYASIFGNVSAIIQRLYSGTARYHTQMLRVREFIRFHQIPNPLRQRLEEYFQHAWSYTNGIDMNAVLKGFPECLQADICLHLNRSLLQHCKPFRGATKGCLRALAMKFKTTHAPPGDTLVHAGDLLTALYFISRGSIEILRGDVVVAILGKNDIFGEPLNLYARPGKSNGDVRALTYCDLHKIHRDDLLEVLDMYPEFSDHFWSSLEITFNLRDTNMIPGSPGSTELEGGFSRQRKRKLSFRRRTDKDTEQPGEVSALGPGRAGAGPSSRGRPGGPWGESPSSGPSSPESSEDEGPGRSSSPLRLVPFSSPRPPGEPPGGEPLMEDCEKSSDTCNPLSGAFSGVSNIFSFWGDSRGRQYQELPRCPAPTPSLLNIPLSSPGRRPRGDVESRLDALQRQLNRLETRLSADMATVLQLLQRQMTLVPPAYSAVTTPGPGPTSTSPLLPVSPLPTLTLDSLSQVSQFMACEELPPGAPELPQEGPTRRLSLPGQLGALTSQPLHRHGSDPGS

As to `CC(/C=C1\SC(=S)N(CC(=O)O)C1=O)=C\c1ccccc1`, the AC50 (in assay [1]; in assay [2]; in [3]; in assay [4]; on Progesterone receptor; in assay [5]) was greater than 30 µM in each case.
Take `CC1(C)S[C@@H]2[C@H](NC(=O)[C@H](N)c3ccc(O)cc3)C(=O)N2[C@H]1C(=O)O` [AMOXICILLIN]: the half-maximal activity concentration (AC50) in [6] was greater than 30 µM; in [1], greater than 30 µM; in [4], greater than 30 µM; on Progesterone receptor, greater than 30 µM; at Mu-type opioid receptor [7] it was greater than 10 µM; in assay [5], greater than 30 µM.
Consider `C=C(C)[C@@H]1CCC(C)=C[C@H]1c1c(O)cc(CCCCC)cc1O` [CANNABIDIOL], for which the AC50 in assay [6] was greater than 30 µM; in assay [1] it was greater than 10 µM; in assay [3], greater than 30 µM; on Progesterone receptor, greater than 30 µM.
`CO/N=C(\C(=O)N[C@@H]1C(=O)N2C(C(=O)O)=C(COC(N)=O)CS[C@H]12)c1ccco1` [CEFUROXIME]: the AC50 in assay [6], in [1], in [2] and in assay [3] was greater than 30 µM each time.
Consider `Clc1cccc(Cl)c1N=C1NCCN1` [CLONIDINE], for which the AC50 in [6] is greater than 30 µM; in [1], greater than 10 µM; in assay [4], greater than 10 µM; at Mu-type opioid receptor [7], greater than 30 µM; in assay [5], greater than 10 µM.
As to `CN1C[C@H](C(=O)N[C@]2(C)O[C@@]3(O)[C@@H]4CCCN4C(=O)[C@H](Cc4ccccc4)N3C2=O)C[C@@H]2c3cccc4[nH]cc(c34)C[C@H]21` [DIHYDROERGOTAMINE], the half-maximal activity concentration (AC50) was 6.7 µM in assay [6]; 0.14 µM in assay [1]; 10 µM in assay [2]; greater than 10 µM in [4]; greater than 30 µM at Mu-type opioid receptor [7]; greater than 10 µM in [5].
For `CNCC[C@H](Oc1cccc2ccccc12)c1cccs1` [DULOXETINE], the concentration at half-maximal activity (AC50) was 8.9 µM in assay [1], greater than 10 µM in assay [4], 12 µM on Mu-type opioid receptor [7] and greater than 10 µM in assay [5].
As for `CCC(=O)O[C@@H](O[P@](=O)(CCCCc1ccccc1)CC(=O)N1C[C@H](C2CCCCC2)C[C@H]1C(=O)O)C(C)C` [FOSINOPRIL], the AC50 (in [6]; in [1]; in [2]; in assay [3]; in assay [4]; on Mu-type opioid receptor [8]) was greater than 30 µM in each case. For the same compound, the AC50 (on Acetylcholinesterase; in [9]; on Histamine H3 receptor) was greater than 30 µM in each case.
On to `Nc1nc(O)c2ncn(COC(CO)CO)c2n1` [GANCICLOVIR], for which the AC50 (in assay [6]; in [1]; in assay [2]; in assay [3]; in assay [4]; on Progesterone receptor) was greater than 30 µM each time. Also, the concentration at half-maximal activity (AC50) in assay [5] was greater than 30 µM.
As for `CC[C@@H](CO)NC(=O)[C@@H]1C=C2c3cccc4[nH]cc(c34)C[C@H]2N(C)C1` [METHYLERGONOVINE], the concentration at half-maximal activity (AC50) in [6] is greater than 30 µM; in assay [1], 0.0144 µM; in assay [2], greater than 30 µM; in assay [3], greater than 30 µM; in assay [4] it was greater than 30 µM; on Progesterone receptor, greater than 30 µM.
As for `CC(=O)Oc1ccccc1C(=O)Nc1ncc([N+](=O)[O-])s1` [NITAZOXANIDE], the half-maximal activity concentration (AC50) (in [6]; in assay [1]; in [10]; in assay [4]; at Mu-type opioid receptor [8]; on Progesterone receptor) was greater than 30 µM throughout. The concentration at half-maximal activity (AC50) on Acetylcholinesterase was greater than 10 µM; in assay [9], 0.0114 µM; on Histamine H3 receptor it was greater than 30 µM; in [5], greater than 30 µM.
Take `CN(C)c1cc(CNCC(C)(C)C)c(O)c2c1C[C@H]1C[C@H]3[C@H](N(C)C)C(O)=C(C(N)=O)C(=O)[C@@]3(O)C(O)=C1C2=O` [OMADACYCLINE]: the concentration at half-maximal activity (AC50) (in assay [6]; in assay [1]; in assay [2]; in assay [3]; in assay [4]; at Mu-type opioid receptor [8]) was greater than 30 µM in each case. Further, the AC50 at Progesterone receptor was greater than 30 µM; at Acetylcholinesterase it was greater than 10 µM; in assay [9], 0.25 µM; on Histamine H3 receptor, greater than 30 µM.
For `CNC(=O)c1cc(Oc2ccc(NC(=O)Nc3ccc(Cl)c(C(F)(F)F)c3)c(F)c2)ccn1` [REGORAFENIB], the AC50 in assay [6] is greater than 30 µM; in [2] it was greater than 10 µM; in assay [3], greater than 30 µM; on Mu-type opioid receptor [8], 4.43 µM; on Progesterone receptor, greater than 30 µM; on Acetylcholinesterase, greater than 30 µM. Further, the AC50 (in [9]; at Histamine H3 receptor) was greater than 30 µM in each case.
For `NC(=O)c1ncn([C@@H]2O[C@H](CO)[C@@H](O)[C@H]2O)n1` [RIBAVIRIN], the AC50 in assay [6] was greater than 30 µM; in [1], greater than 10 µM; in assay [2], greater than 30 µM; in [4] it was greater than 10 µM; on Progesterone receptor, greater than 10 µM; on Mu-type opioid receptor [7] it was greater than 30 µM. In addition, the half-maximal activity concentration (AC50) in [5] was greater than 10 µM.
As to `CCCCNc1ccc(C(=O)OCCN(C)C)cc1` [TETRACAINE], the AC50 in [6] is greater than 30 µM; in assay [1] it was greater than 10 µM; in [2], 25.9 µM; in assay [4], greater than 10 µM; at Mu-type opioid receptor [8] it was greater than 30 µM; on Mu-type opioid receptor [7], greater than 10 µM. Also, the half-maximal activity concentration (AC50) is 8.1 µM at Acetylcholinesterase, greater than 30 µM in assay [9], 24.2 µM at Histamine H3 receptor and greater than 10 µM in [5].
For `CN1CCN(CCCN2c3ccccc3Sc3ccc(S(=O)(=O)N(C)C)cc32)CC1` [THIOPROPERAZINE], the concentration at half-maximal activity (AC50) in assay [6] was 13 µM; in [2] it was 0.4 µM; in assay [3], greater than 30 µM; in assay [4], greater than 30 µM; on Mu-type opioid receptor [8], 11.6 µM; on Acetylcholinesterase, 29 µM. The figures for the AC50 (in assay [9]; on Histamine H3 receptor) were greater than 30 µM and 13.7 µM, respectively.
Regarding `Cc1cc(CC(=O)O)n(C)c1C(=O)c1ccc(Cl)cc1` [ZOMEPIRAC], the AC50 (in [6]; in assay [1]; in assay [2]; in [3]; in [4]; at Progesterone receptor) was greater than 30 µM each time. Moreover, the AC50 in assay [5] is greater than 30 µM.
